Results taken from patent US6878690B2, “Compounds and methods” (PharmAxis Pty Ltd., priority 2000, dated 2005).
“And” between values parts separate entries of the source, which are not always exact repeats. Equal values may be shown once.

Columns and labels:
[1] = tested on: passively transferred EAE; assay: Passively transferred EAE induced with concanavalin A stimulated spleen lymphoblasts (Example 24); type: in vivo, Lewis rats; design: key to Clinical score - Treated, Mean: 0 = asymptomatic to 5 = hind limb paralysis; conditions: for Clinical score - Treated, Mean: group mean; for Mean maximum clinical score / DI (disease index): treated group
Experimental: In a similar type of experiment outlined in Example 20, and in order to study the effect of the agents of the present invention in vivo on a disease caused by T lymphocyte migration into a specific tissue, further experiments were performed in a Lewis rat model of passively transferred EAE. Here, myelin basic protein (MBP)-specific T lymphocytes were generated in spleens of Lewis rats that had been immunised with guinea pig MBP in Freund's complete adjuvant. Thus, in this manner donor T lymphocytes were generated from male 12-20 week old Lewis rats weighing 200 to 250 g. These rats were injected intradermally in a footpad of each hind foot with an emulsion of guinea pig myelin basic protein (MBP; prepared according to the method of Deibler et al., 1972; incorporated herein by reference) in Freund's complete adjuvant (0.1 ml). The adjuvant emulsion was prepared by emulsifying equal volumes of a mixture of 85% light mineral oil (0.8417 g/mL (Sigma)) plus 15% mannide monooleate (Sigma) containing Mycobacterium butyricum (4 mg/ml; Difco) and normal saline containing guinea pig myelin basic protein (0.25 mg/ml). Thus, the total dose per rat was 25 micrograms of MBP and 400 micrograms of M. butyricum. Ten days following injection, the rats were euthanased and the spleens removed aseptically by blunt dissection and placed into mixed lymphocyte culture medium. This medium was prepared in the normal fashion from Dulbecco's Modified Eagle's Medium (DMEM; GIBCO, Grand Island, N.Y.) supplemented with glucose (4 g/L), folic acid (6 mg/L), L-asparagine (36 mg/L), sodium bicarbonate (2 g/L), L-arginine (116 mg/L), L-glutamine (2 mM), sodium pyruvate (1 mM), HEPES (10 mM), 2-mercaptoethanol (5×10^−5 M), penicillin, streptomycin, neomycin, and 10% fetal calf serum. A single cell suspension was prepared from the spleens in the usual manner by gently pushing them through a stainless steel screen. The cells were washed twice and cultured asceptically for 72 hours at 37° C. in a humidified atmosphere containing 5% carbon dioxide at a concentration of 2 million cells per milliliter in the presence of concanavalin A (2 microgram/mL). The cells were collected and washed twice in Hanks balanced salt solution. Cells were resuspended in Hanks balanced salt solution and each recipient animal (10-12 weeks old female Lewis rats; 160-180 g) received 40-42.5 million lymphoblasts by lateral tail vein injection in a volume of 0.5 ml.
In a typical experiment 4-5 recipient rats were anesthetised with diethyl ether and implanted with mini-osmotic pumps (Alzet 2001, Alza Corp., Palo Alto Calif., USA) containing the test compound. A second group of 4 animals, the control group, under ether anesthesia, were implanted with Alzet 2001 pumps containing normal saline. Mini-osmotic pumps were implanted three days after cell transfer. Disease severity (clinical score) was scored on an arbitrary scale of severity ranging from 0 to 5 as follows: 0, asymptomatic; 1, flaccid distal half of tail; 2, entire tail flaccid; 3, ataxia, difficulty in righting reflex; 4, hind limb weakness; 5, hind limb paralysis. Mean maximum clinical scores were calculated and the disease index (DI) for each group was calculated as described in Example 20. The results of these experiments are outlined in Tables 6, 7 and 8.

[2] = tested on: DTH response to 2,4-dinitrofluorobenzene (DNFB); assay: Delayed-type hypersensitivity (DTH) response to DNFB, ear swelling; type: in vivo, Balb/C mice; conditions: for Mean percentage decrease in ear swelling in treated animals: versus saline controls; for Mean Difference, Treated: group mean; for Difference (right minus left ear), Treated / Right ear thickness, Treated / Left ear thickness, Treated: individual mice, 24 hours after challenge; for Right ear thickness, Treated: challenged ear; for Left ear thickness, Treated: control (unchallenged) ear
Source text: In the present Example, a murine model of Type IV hypersensitivity or delayed-type hypersensitivity (DTH) response to cutaneous contact with the chemical hapten 2,4-dinitrofluorobenzene (DNFB) (Aldrich Chemical Company Inc, USA) was used as a model to measure the anti-inflammatory effects of compounds of the present invention. Specific pathogen-free 8-12 week old female Balb/C mice, weighing 19-21 g, were sensitised in a similar manner to that described by Klimuk et al., (Klimuk et al., 1999) by applying a solution of DNFB (0.5% in acetone:olive oil (4:1, v/v); 30 microliters,) onto a 2 cm^2 shaved area of the abdomen. After 7 days, the animals were anesthetised with diethyl ether and 8 microliters of DNFB (0.35% in acetone:olive oil (4:1, v/v) was applied to the dorsal and ventral surfaces of the right pinna. Prior to regaining consciousness, the mice were implanted intraperitoneally with Alzet 2001 mini-osmotic pumps (Alza Corp., Palo Alto Calif., USA) containing phosphoric acid mono-[6-(3-hexyloxy-propyl)-3,4,5-trihydroxy-tetrahydro-pyran-2-ylmethyl] ester, sodium salt in normal saline. The dose delivered was 50 mg/kg/day. Control animals for this group received saline delivered in identical mini-osmotic pumps. A second experimental group of mice received phosphoric acid mono-[3-(3,4,5-trihydroxy-6-phosphonooxymethyl-tetrahydro-pyran-2-yl)-propyl] ester disodium salt via one-week delivery Alzet 2001 mini-osmotic pumps implanted intraperitoneally. This compound was delivered at a dose of 40 mg/kg/day. Control animals for this group received saline delivered in identical mini-osmotic pumps. In a third experiment a separate group of mice received (3,4,5-trihydroxy-6-phosphonooxymethyl-tetrahydro-pyran-2-yl)-acetic acid disodium salt via one-week delivery Alzet 2001 mini-osmotic pumps that were placed intraperitoneally. This compound was delivered at 45 mg/kg/day. The control group for this experiment received identical mini-osmotic pumps containing normal saline. In a fourth experiment a group of mice received 3-phenyl-2-[2-(3,4,5-trihydroxy-6-phosphonooxymethyl-tetrahydro-pyran-2-yl)-acetylamino]-propionic acid monosodium salt via one-week delivery Alzet 2001 mini-osmotic pumps that were placed subcutaneously. This compound was delivered at 62 mg/kg/day. The control group for this experiment received identical mini-osmotic pumps containing normal saline. In a fifth experiment a group of mice received hexanoic acid 3-(3,4,5-trihydroxy-6-phosphonooxymethyl-tetrahydro-pyran-2-yl)-propyl ester sodium salt via one-week delivery Alzet 2001 mini-osmotic pumps that were placed subcutaneously. This compound was delivered at 40 mg/kg/day. The control group for this experiment received identical mini-osmotic pumps containing normal saline.
Twenty-four hours after challenge the mice were lightly anesthetised with diethyl ether and the thickness of the left and right pinnae measured (in millimeters) using a dial gauge micrometer (Interapid, Switzerland). Care was taken to measure only the outer two thirds of the ear. The increase in ear thickness initiated by the DTH response was determined by subtracting the measurement of the left ear (untreated) from the right ear (challenged).
In Table 4, values in the columns labeled Left and Right are measurements of ear thickness in millimeters of the control and challenged ears respectively.

[3] = 40 mg/kg/day, mini-osmotic pump intraperitoneally, disodium salt
[4] = 40 mg/kg/day, mini-osmotic pump subcutaneously, monosodium salt
[5] = 62 mg/kg/day, mini-osmotic pump subcutaneously, monosodium salt

O=P([O-])([O-])OCCCC1OC(COP(=O)(O)O)C(O)C(O)C1O.[Na+].[Na+] (stereo not drawn) [phosphoric acid mono-[3-(3,4,5-trihydroxy-6-phosphonooxymethyl-tetrahydro-pyran-2-yl)-propyl] ester disodium salt]
Clinical score - Treated, Mean ([1]; day 4, 40 mg/kg/day intraperitoneally): 0
Clinical score - Treated ([1]; day 4, individual rats, 40 mg/kg/day intraperitoneally, scale 0 to 5): 0
Clinical score - Treated, Mean ([1]; day 5, 40 mg/kg/day intraperitoneally): 1.375
Clinical score - Treated ([1]; day 5; individual rats; 40 mg/kg/day intraperitoneally; scale 0 to 5; disodium salt, 40 mg/kg/day)): 2 (2×) and 0 and 1.5
Clinical score - Treated, Mean ([1]; day 7, 40 mg/kg/day intraperitoneally): 2.125
Clinical score - Treated ([1]; day 7; individual rats; 40 mg/kg/day intraperitoneally; scale 0 to 5; disodium salt, 40 mg/kg/day)): 2.5 and 1 and 3 and 2
Clinical score - Treated, Mean ([1]; day 8, 40 mg/kg/day intraperitoneally): 1.75
Clinical score - Treated ([1]; day 8; individual rats; 40 mg/kg/day intraperitoneally; scale 0 to 5; disodium salt, 40 mg/kg/day)): 2 (2×) and 0.5 and 2.5
Clinical score - Treated, Mean ([1]; day 9, 40 mg/kg/day intraperitoneally): 0.75
Clinical score - Treated ([1]; day 9; individual rats; 40 mg/kg/day intraperitoneally; scale 0 to 5; disodium salt, 40 mg/kg/day)): 1 (3×) and 0
Clinical score - Treated, Mean ([1]; day 10, 40 mg/kg/day intraperitoneally): 0.125
Clinical score - Treated ([1]; day 10; individual rats; 40 mg/kg/day intraperitoneally; scale 0 to 5; disodium salt, 40 mg/kg/day)): 0 (3×) and 0.5
Mean maximum clinical score ([1]; 40 mg/kg/day intraperitoneally, control 3.0): clinical score 2.3
DI (disease index) ([1]; 40 mg/kg/day intraperitoneally, control DI 45.0): DI - 18.6 Mean maximum
Mean percentage decrease in ear swelling in treated animals ([2]; 40 mg/kg/day intraperitoneally): Mean percentage decrease in ear swelling in treated animals: 30%
Mean Difference, Treated ([2]; 40 mg/kg/day intraperitoneally, saline control mean 0.086): 0.060 millimeters
Difference (right minus left ear), Treated [2, 3]: 0.07 millimeters and 0.03 millimeters and 0.02 millimeters and 0.06 millimeters and 0.12 millimeters
Right ear thickness, Treated [2, 3]: 0.28 millimeters (2×) and 0.25 millimeters and 0.23 millimeters and 0.33 millimeters
Left ear thickness, Treated [2, 3]: 0.21 millimeters (3×) and 0.22 millimeters (2×)

CCCCCC(=O)OCCCC1OC(COP(=O)(O)O)C(O)C(O)C1O.[Na] (stereo not drawn) [hexanoic acid 3-(3,4,5-trihydroxy-6-phosphonooxymethyl-tetrahydro-pyran-2-yl)-propyl ester monosodium salt]
Mean percentage decrease in ear swelling in treated animals ([2]; 40 mg/kg/day subcutaneously): Mean percentage decrease in ear swelling in treated animals: 47.6%
Mean Difference, Treated ([2]; 40 mg/kg/day subcutaneously, saline control mean 0.126): 0.066 millimeters
Difference (right minus left ear), Treated [2, 4]: 0.07 millimeters (2×) and 0.08 millimeters and 0.05 millimeters and 0.06 millimeters
Right ear thickness, Treated [2, 4]: 0.29 millimeters (3×) and 0.28 millimeters and 0.27 millimeters
Left ear thickness, Treated [2, 4]: 0.22 millimeters (2×) and 0.21 millimeters (2×) and 0.23 millimeters

O=C(CC1OC(COP(=O)(O)O)C(O)C(O)C1O)NC(Cc1ccccc1)C(=O)[O-].[Na+] (stereo not drawn) [3-phenyl-2-[2-(3,4,5-trihydroxy-6-phosphonooxymethyl-tetrahydro-pyran-2-yl)-acetylamino]-propionic acid monosodium salt]
Clinical score - Treated, Mean ([1]; day 4, 62 mg/kg/day subcutaneously): 0
Clinical score - Treated ([1]; day 4, individual rats, 62 mg/kg/day subcutaneously, scale 0 to 5): 0
Clinical score - Treated, Mean ([1]; day 5, 62 mg/kg/day subcutaneously): 0.8
Clinical score - Treated ([1]; day 5, individual rats, 62 mg/kg/day subcutaneously, scale 0 to 5, monosodium salt, 62 mg/kg/day): 0 (2×) and 1 (2×) and 2
Clinical score - Treated, Mean ([1]; day 6, 62 mg/kg/day subcutaneously): 0.9
Clinical score - Treated ([1]; day 6, individual rats, 62 mg/kg/day subcutaneously, scale 0 to 5, monosodium salt, 62 mg/kg/day): 0 and 0.5 and 1 (2×) and 2
Clinical score - Treated, Mean ([1]; day 7, 62 mg/kg/day subcutaneously): 0.7
Clinical score - Treated ([1]; day 7, individual rats, 62 mg/kg/day subcutaneously, scale 0 to 5, monosodium salt, 62 mg/kg/day): 0 (2×) and 0.5 and 1 and 2
Clinical score - Treated, Mean ([1]; day 8, 62 mg/kg/day subcutaneously): 0.7
Clinical score - Treated ([1]; day 8, individual rats, 62 mg/kg/day subcutaneously, scale 0 to 5, monosodium salt, 62 mg/kg/day): 0 (2×) and 1 (2×) and 1.5
Clinical score - Treated, Mean ([1]; day 9, 62 mg/kg/day subcutaneously): 0.4
Clinical score - Treated ([1]; day 9, individual rats, 62 mg/kg/day subcutaneously, scale 0 to 5, monosodium salt, 62 mg/kg/day): 0 (3×) and 0.5 and 1
Clinical score - Treated, Mean ([1]; day 10, 62 mg/kg/day subcutaneously): 0.2
Clinical score - Treated ([1]; day 10, individual rats, 62 mg/kg/day subcutaneously, scale 0 to 5, monosodium salt, 62 mg/kg/day): 0 (3×) and 0.5 (2×)
Mean maximum clinical score ([1]; 62 mg/kg/day subcutaneously, control 1.5): clinical score 1.0
DI (disease index) ([1]; 62 mg/kg/day subcutaneously, control DI 14.1): DI - 8.13 Mean maximum
Mean percentage decrease in ear swelling in treated animals ([2]; 62 mg/kg/day subcutaneously): Mean percentage decrease in ear swelling in treated animals: 49.3%
Mean Difference, Treated ([2]; 62 mg/kg/day subcutaneously, saline control mean 0.134): 0.068 millimeters
Difference (right minus left ear), Treated [2, 5]: 0.11 millimeters and 0.09 millimeters and 0.06 millimeters and 0.04 millimeters (2×)
Right ear thickness, Treated [2, 5]: 0.33 millimeters and 0.31 millimeters and 0.29 millimeters and 0.25 millimeters (2×)
Left ear thickness, Treated [2, 5]: 0.22 millimeters (2×) and 0.23 millimeters and 0.21 millimeters (2×)
